We go through 26 compounds from US9089603B2, “Fluorescent imaging with substituted cyanine dyes” (LI-COR, INC., priority 2010, dated 2015).

A short description of data set [1]: Comparison of dye emission maxima and quenching. Type of data set: physicochemical. The note with it: IRDye 800CW samples, excitation 770 nm. The procedure:
Solutions of dye-linker standards and dye-linker-quencher samples were diluted into PBS buffer (pH 7.4) to give a dye-specific absorbance less than 0.2 AU. The fluorescence spectra of each dilution were then taken at a consistent excitation wavelength (670 nm for HETD and 770 nm for IRDye 800CW). The emission spectra were collected from 680-1000 nm for the HETD samples and 780-1000 nm for the IRDye 800CW samples.

Data set [2] in a line: Absorption wavelength of the cyanine dyes in methanol (halo substitution effect). It counts as physicochemical. The source says: [table] Design Principle: We analyzed the properties of a dye scaffold and related compounds and the corresponding substitution effects on the excitation and emission wavelengths. The small size of fluorine is unlikely to produce steric effects, therefore, we explored the electronic effects of fluorine and related substitutions. The Hammett equation (σ-value) is an important tool to understand the electronic effects of the substituents, therefore, we explored the correlation of the wavelength (λMeOH) and the σ-value (vide infra): […]

Data set [3] in a line: Photophysical properties (absorption, emission, fluorescence intensity, quantum yield) versus IRDye 800CW. Type of data set: physicochemical.
Data set [4] can be described thus: In vivo clearance imaging in nude mice (Pearl Impulse). The note with it: 1 nmole; for Total (signal): 800 channel. As to the method: Two nude mice were injected with 1 nmole of either compound 16 or IRDye 800CW carboxylate. They were then imaged longitudinally over the next 24 h with the Pearl Impulse imaging system. The results are presented in FIG. 9: in vivo clearance in nudes (FIG. 9A), whole body dorsal views (FIG. 9B), and the rate of clearance (FIG. 9C). The clearance data is presented below in Table 4.

Take `CC1(C)C(/C=C/C2=C(Oc3ccc(S(=O)(=O)[O-])cc3)C(=C/C=C3/N(CCCCS(=O)(=O)[O-])c4ccc(S(=O)(=O)[O-])cc4C3(C)C)/CCC2)=[N+](CCCCCC(=O)NCCCOCCOCCOCCCNC(=O)CCCCC[N+]2=C(/C=C/C3=C(c4ccccc4F)C(=C/C=C4/N(CCCS(=O)(=O)[O-])c5ccc(N(CCCS(=O)(=O)[O-])CCCS(=O)(=O)[O-])cc5C4(C)C)/CCC3)C(C)(C)c3c2ccc2cc(S(=O)(=O)[O-])ccc32)c2ccc(S(=O)(=O)[O-])cc21.[Na+].[Na+].[Na+].[Na+].[Na+].[Na+]` [Compound 38]: the “Peak fluorescence emission intensity” value in data set [1] (PBS pH 7.4) is reported as 385983. Moreover, the “Percent Quenching” value in data set [1] (versus dye-linker standard) was found to be 71.3%.
In data set [2] (Table 2), `CC1(C)C(/C=C/C2=C(c3cccc(F)c3F)C(=C/C=C3/N(CCCCS(=O)(=O)[O-])c4ccc(S(=O)(=O)[O-])cc4C3(C)C)/CC(C(=O)O)C2)=[N+](CCCCS(=O)(=O)[O-])c2ccc(S(=O)(=O)[O-])cc21.[Na+].[Na+].[Na+]` (stereo not drawn) [Compound 63a] had a λMeOH of 770 nm.
As for `CC1(C)C(/C=C/C2=C(c3c(F)cc(F)cc3F)C(=C/C=C3/N(CCCCS(=O)(=O)[O-])c4ccc(S(=O)(=O)[O-])cc4C3(C)C)/CCC2)=[N+](CCCCCC(=O)O)c2ccc(S(=O)(=O)[O-])cc21.[Na+].[Na+]`, the λMeOH in data set [2] (Table 5) stood at 785 nm.
Turning to `CCCCOc1c(F)c(F)c(C2=C(/C=C/C3=[N+](CCCCS(=O)(=O)[O-])c4ccc(S(=O)(=O)[O-])cc4C3(C)C)CCC/C2=C\C=C2\N(CCCCS(=O)(=O)[O-])c3ccc(S(=O)(=O)[O-])cc3C2(C)C)c(F)c1F.[Na+].[Na+].[Na+]` [Compound 24], in data set [2] (Table 2), the λMeOH worked out at 790 nm.
Turning to `CC1(C)C(/C=C/C2=C(c3cccc(F)c3F)C(=C/C=C3/N(CCCCS(=O)(=O)[O-])c4ccc(S(=O)(=O)[O-])cc4C3(C)C)/CCC2)=[N+](CCCCS(=O)(=O)[O-])c2ccc(S(=O)(=O)[O-])cc21.[Na+].[Na+].[Na+]` [Compound 62k], the “Fl Intensity of X / Fl Intensity of 800 CW, Odyssey” value in data set [3] (0.1 μM solutions in 1XPBS, Odyssey) is 104%. For the same compound, the “Fl Intensity of X / Fl Intensity of 800 CW, Fluorimeter” value in data set [3] (0.1 μM solutions in 1XPBS, fluorimeter) came to 100%. In addition, the “Quantum Yield” value in data set [3] (Stnd = IRDye 800CW (QY = 0.07)) was found to be 0.060. Further, in data set [3] (in PBS), the “Abs Max PBS” value was 773 nm and the “EmMax PBS” value was 790 nm. Besides, in data set [3] (in methanol), the “Abs Max Methanol” value is given as 781 nm.
Regarding `CCCCOc1c(F)c(F)c(C2=C(/C=C/C3=[N+](CCCCCC(=O)O)c4ccc(S(=O)(=O)[O-])cc4C3(C)C)CCC/C2=C\C=C2\N(CCCCS(=O)(=O)[O-])c3ccc(S(=O)(=O)[O-])cc3C2(C)C)c(F)c1F.[Na+].[Na+]`, the λMeOH in data set [2] (Table 5) came to 790 nm.
`CC1(C)C(/C=C/C2=C(c3cccc(CCCCC(=O)O)c3)C(=C/C=C3/N(CCCCS(=O)(=O)[O-])c4ccc(S(=O)(=O)[O-])cc4C3(C)C)/CCC2)=[N+](CCCCS(=O)(=O)[O-])c2ccc(S(=O)(=O)[O-])cc21.[Na+].[Na+].[Na+]` [Compound 11]: the λMeOH in data set [2] (Table 2) was 766 nm.
The compound `CC1(C)C(/C=C/C2=C(c3c(Cl)cccc3Cl)C(=C/C=C3/N(CCCS(=O)(=O)[O-])c4ccc(S(=O)(=O)[O-])cc4C3(C)C)/CC(C(=O)O)C2)=[N+](CCCS(=O)(=O)[O-])c2ccc(S(=O)(=O)[O-])cc21.[Na+].[Na+].[Na+]` (stereo not drawn) [Compound 15] returned a λMeOH in data set [2] (Table 2) of 782 nm.
In the case of `CCCCOc1c(F)cc(F)c(C2=C(/C=C/C3=[N+](CCCCCC(=O)O)c4ccc(S(=O)(=O)[O-])cc4C3(C)C)CCC/C2=C\C=C2\N(CCCCS(=O)(=O)[O-])c3ccc(S(=O)(=O)[O-])cc3C2(C)C)c1F.[Na+].[Na+]`, the λMeOH in data set [2] (Table 5) was 789 nm.
As for `CCCCOc1ccc(F)c(C2=C(/C=C/C3=[N+](CCCCCC(=O)O)c4ccc(S(=O)(=O)[O-])cc4C3(C)C)CCC/C2=C\C=C2\N(CCCCS(=O)(=O)[O-])c3ccc(S(=O)(=O)[O-])cc3C2(C)C)c1F.[Na+].[Na+]`, in data set [2] (Table 5), the λMeOH is 779 nm.
Same read-out and setting: in the case of `CC1(C)C(/C=C/C2=C(c3c(F)cccc3F)C(=C/C=C3/N(CCCCS(=O)(=O)[O-])c4ccc(S(=O)(=O)[O-])cc4C3(C)C)/CCC2)=[N+](CCCCCC(=O)O)c2ccc(S(=O)(=O)[O-])cc21.[Na+].[Na+]` it was 782 nm.
In turn, `CC1(C)C(/C=C/C2=C(c3ccc(CCC(=O)O)c(F)c3F)C(=C/C=C3/N(CCCCS(=O)(=O)[O-])c4ccc(S(=O)(=O)[O-])cc4C3(C)C)/CCC2)=[N+](CCCCS(=O)(=O)[O-])c2ccc(S(=O)(=O)[O-])cc21.[Na+].[Na+].[Na+]` [Compound 65] had a λMeOH in data set [2] (Table 2) of 776 nm.
`CC1(C)C(/C=C/C2=C(c3c(Cl)cccc3Cl)C(=C/C=C3/N(CCCCS(=O)(=O)[O-])c4ccc(S(=O)(=O)[O-])cc4C3(C)C)/CCC2)=[N+](CCCCCC(=O)O)c2ccc(S(=O)(=O)[O-])cc21.[Na+].[Na+]` registered a λMeOH in data set [2] (Table 5) of 782 nm.
Consider `CC1(C)C(/C=C/C2=C(c3ccc(C(=O)NCCCCCC(=O)O)c(F)c3F)C(=C/C=C3/N(CCCCS(=O)(=O)[O-])c4ccc(S(=O)(=O)[O-])cc4C3(C)C)/CCC2)=[N+](CCCCS(=O)(=O)[O-])c2ccc(S(=O)(=O)[O-])cc21.[Na+].[Na+].[Na+]` [Compound 66], for which the λMeOH in data set [2] (Table 2) amounted to 773 nm.
Consider `CCCCOc1c(F)cc(F)c(C2=C(/C=C/C3=[N+](CCCCS(=O)(=O)[O-])c4ccc(S(=O)(=O)[O-])cc4C3(C)C)CCC/C2=C\C=C2\N(CCCCS(=O)(=O)[O-])c3ccc(S(=O)(=O)[O-])cc3C2(C)C)c1F.[Na+].[Na+].[Na+]` [Compound 23], for which the λMeOH in data set [2] (Table 2) was determined as 789 nm.
In the case of `CC1(C)C(/C=C/C2=C(c3c(F)cc(F)cc3F)C(=C/C=C3/N(CCCCS(=O)(=O)[O-])c4ccc(S(=O)(=O)[O-])cc4C3(C)C)/CCC2)=[N+](CCCCS(=O)(=O)[O-])c2ccc(S(=O)(=O)[O-])cc21.[Na+].[Na+].[Na+]` [Compound 14], the λMeOH in data set [2] (Table 2) was 785 nm.
With “IRDye 800CW carboxylate [reference compound]”, the “Total (signal)” value stood at 114295.49 in data set [4] (3 Min); 306555.97 in data set [4] (19 Min); 291381.69 in data set [4] (47 Min); 272408.13 in data set [4] (74 Min); 154950.09 in data set [4] (192 Min); 102698.54 in data set [4] (278 Min). In addition, the “Total (signal)” value in data set [4] (1439 Min) turned out to be 2336.87. Moreover, the Clearance in vivo entry in data set [4] (nude mice, imaged over 24 h) is on record as “good clearance”.
On to `CC1(C)C(/C=C/C2=C(c3ccc(C(=O)O)c(F)c3F)C(=C/C=C3/N(CCCCS(=O)(=O)[O-])c4ccc(S(=O)(=O)[O-])cc4C3(C)C)/CCC2)=[N+](CCCCS(=O)(=O)[O-])c2ccc(S(=O)(=O)[O-])cc21.[Na+].[Na+].[Na+]` [Compound 64], for which the λMeOH in data set [2] (Table 2) amounted to 772 nm.
In turn, `COc1cc(F)c(C2=C(/C=C/C3=[N+](CCCCCC(=O)O)c4ccc(S(=O)(=O)[O-])cc4C3(C)C)CCC/C2=C\C=C2\N(CCCCS(=O)(=O)[O-])c3ccc(S(=O)(=O)[O-])cc3C2(C)C)c(F)c1.[Na+].[Na+]` registered a λMeOH in data set [2] (Table 5) of 772 nm.
For the compound `CC1(C)C(/C=C/C2=C(c3c(F)cc(C(=O)O)cc3F)C(=C/C=C3/N(CCCCS(=O)(=O)[O-])c4ccc(S(=O)(=O)[O-])cc4C3(C)C)/CCC2)=[N+](CCCCCC(=O)O)c2ccc(S(=O)(=O)[O-])cc21.[Na+].[Na+]`, the λMeOH in data set [2] (Table 5) stood at 782 nm.
`CC1(C)C(/C=C/C2=C(c3ccccc3F)C(=C/C=C3/N(CCCCS(=O)(=O)[O-])c4ccc(S(=O)(=O)[O-])cc4C3(C)C)/CCC2)=[N+](CCCCS(=O)(=O)[O-])c2ccc(S(=O)(=O)[O-])cc21.[Na+].[Na+].[Na+]` [Compound 12] registered a λMeOH in data set [2] (Table 2) of 772 nm.
With `CC1(C)C(/C=C/C2=C(c3c(F)cc(C(=O)O)cc3F)C(=C/C=C3/N(CCCCS(=O)(=O)[O-])c4ccc(S(=O)(=O)[O-])cc4C3(C)C)/CCC2)=[N+](CCCCS(=O)(=O)[O-])c2ccc(S(=O)(=O)[O-])cc21.[Na+].[Na+].[Na+]` [Compound 26], in data set [2] (Table 2), the λMeOH was determined as 782 nm.
As to `COc1cc(F)c(C2=C(/C=C/C3=[N+](CCCCS(=O)(=O)[O-])c4ccc(S(=O)(=O)[O-])cc4C3(C)C)CCC/C2=C\C=C2\N(CCCCS(=O)(=O)[O-])c3ccc(S(=O)(=O)[O-])cc3C2(C)C)c(F)c1.[Na+].[Na+].[Na+]` [Compound 21], the λMeOH in data set [2] (Table 2) is 783 nm.
In the case of `CC1(C)C(/C=C/C2=C(c3c(F)cccc3F)C(=C/C=C3/N(CCCCS(=O)(=O)[O-])c4ccc(S(=O)(=O)[O-])cc4C3(C)C)/CCC2)=[N+](CCCCS(=O)(=O)[O-])c2ccc(S(=O)(=O)[O-])cc21.[Na+].[Na+].[Na+]` [Compound 13], the λMeOH in data set [2] (Table 2) was 782 nm.
In turn, `CCCCOc1ccc(F)c(C2=C(/C=C/C3=[N+](CCCCS(=O)(=O)[O-])c4ccc(S(=O)(=O)[O-])cc4C3(C)C)CCC/C2=C\C=C2\N(CCCCS(=O)(=O)[O-])c3ccc(S(=O)(=O)[O-])cc3C2(C)C)c1F.[Na+].[Na+].[Na+]` [Compound 22] showed a λMeOH in data set [2] (Table 2) of 783 nm.
On to `CC1(C)C(/C=C/C2=C(c3ccccc3F)C(=C/C=C3/N(CCCCS(=O)(=O)[O-])c4ccc(S(=O)(=O)[O-])cc4C3(C)C)/CCC2)=[N+](CCCCCC(=O)O)c2ccc(S(=O)(=O)[O-])cc21.[Na+].[Na+]`, for which the λMeOH in data set [2] (Table 5) is 772 nm.
